Measured values published in US20230135729A1, “COMPOUND WITH ANTI-SPORE ACTIVITY AND PHARMACEUTICAL COMPOSITION THEREOF” (priority 2020, published 2023).
≈ marks a conversion by molar mass, not a printed value. Read-outs that look alike come from different tables or passages of the source.

Tests used:
Assay type in all cases: cell-based
[1] = tested on: spores of ATCC 43255 strain; experiment: Inhibition of germination of C. difficile spores (MIC), strain ATCC 43255; conditions: strain 43255, sodium taurocholate as germinant, BHIS medium, 37° C., OD580 for 60 min, read-out: MIC (minimum concentration that completely inhibits spore germination)
Procedure, shortened: (§1)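 Spores heat-activated for 30 min at 65° C and washed, then preincubated with compound (10 mM DMSO stock) in BHIS at 37° C. Germination was triggered with sodium taurocholate, and OD580 was read each minute for 60 min. Inhibition = 100% − germination rate, from final vs initial OD relative to germinant-only controls.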

[2] = tested on: spores of ATCC 630 strain; experiment: Inhibition of germination of C. difficile spores (MIC), strain ATCC 630; conditions: strain 630, sodium taurocholate as germinant, BHIS medium, 37° C., OD580 for 60 min, read-out: MIC (minimum concentration that completely inhibits spore germination)
Procedure, shortened: as §1

[3] = tested on: spores of ATCC BBA1870 strain; experiment: Inhibition of germination of C. difficile spores (MIC), strain ATCC BBA1870; conditions: strain 1870, sodium taurocholate as germinant, BHIS medium, 37° C., OD580 for 60 min, read-out: MIC (minimum concentration that completely inhibits spore germination)
Procedure, shortened: as §1

[4] = Clostridioides difficile, ATCC43255, 1 h
[5] = Clostridioides difficile, ATCC630, 1 h
[6] = Clostridioides difficile, ATCCBBA1870STRAIN, 1 h

SMILES	MIC [1]	MIC [2]	MIC [3]	MIC [1, 4]	MIC [2, 5]	MIC [3, 6]
C[C@H](CCC(=O)Nc1cccc(S(=O)(=O)O)c1)[C@H]1CC[C@H]2[C@@H]3[C@H](O)C[C@@H]4C[C@H](O)CC[C@]4(C)[C@H]3C[C@H](O)[C@]12C [CamSA, reference compound]	>256 µM	>256 µM	>256 µM			
CC(C)[C@@H](NC(=O)C[C@@H](C)[C@H]1CC[C@H]2[C@@H]3[C@H](OS(=O)(=O)O)C[C@@H]4CC(=O)CC[C@]4(C)[C@H]3CC[C@]12C)c1ccc(Br)s1 [Compound I-115]				0.25 µM (≈ 0.168 µg/mL)	0.5 µM (≈ 0.336 µg/mL)	0.5 µM (≈ 0.336 µg/mL)
C[C@H](CC(=O)NC(c1ccc(S(=O)(=O)O)s1)C1CC1)[C@H]1CC[C@H]2[C@@H]3C(=O)C[C@@H]4CC(=O)CC[C@]4(C)[C@H]3CC[C@]12C (stereo partly drawn) [Compound I-52]				16 µM (≈ 9.44 µg/mL)	16 µM (≈ 9.44 µg/mL)	16 µM (≈ 9.44 µg/mL)
CC(C)[C@@H](NC(=O)C[C@@H](C)[C@H]1CC[C@H]2[C@@H]3[C@H](O)C[C@@H]4CC(=O)CC[C@]4(C)[C@H]3C[C@H](O)[C@]12C)c1ccc(Br)s1 [Compound I-166]				32 µM (≈ 19.5 µg/mL)	32 µM (≈ 19.5 µg/mL)	64 µM (≈ 39 µg/mL)
C[C@H](CC(=O)N[C@H](C)c1ccccc1)[C@H]1CC[C@H]2[C@@H]3C(=O)C[C@@H]4CC(=O)CC[C@]4(C)[C@H]3CC[C@]12C [Compound I-25]				1 µM (≈ 0.478 µg/mL)	1 µM (≈ 0.478 µg/mL)	2 µM (≈ 0.955 µg/mL)
CCC(NC(=O)C[C@@H](C)[C@H]1CC[C@H]2[C@@H]3[C@H](OS(=O)(=O)O)C[C@@H]4CC(=O)CC[C@]4(C)[C@H]3CC[C@]12C)c1ccc(Br)s1 (stereo partly drawn) [Compound I-107]				1 µM (≈ 0.659 µg/mL)	1 µM (≈ 0.659 µg/mL)	1 µM (≈ 0.659 µg/mL)
CC[C@@H](NC(=O)C[C@@H](C)[C@H]1CC[C@H]2[C@@H]3[C@H](O)CC4=CC(=O)C=C[C@]4(C)[C@H]3CC[C@]12C)c1ccc(Cl)s1 [Compound I-161-2]				0.5 µM (≈ 0.265 µg/mL)	0.25 µM (≈ 0.133 µg/mL)	0.25 µM (≈ 0.133 µg/mL)
CC(C)[C@@H](NC(=O)C[C@@H](C)[C@H]1CC[C@H]2[C@@H]3[C@H](O)CC4=CC(=O)C=C[C@]4(C)[C@H]3CC[C@]12C)c1ccc(Br)s1 [Compound I-160-2]				0.5 µM (≈ 0.294 µg/mL)	0.5 µM (≈ 0.294 µg/mL)	0.5 µM (≈ 0.294 µg/mL)
CC(=O)c1ccc([C@H](NC(=O)C[C@@H](C)[C@H]2CC[C@H]3[C@@H]4C(=O)C[C@@H]5CC(=O)CC[C@]5(C)[C@H]4CC[C@]23C)C(C)C)s1 [Compound I-202]				32 µM (≈ 17.7 µg/mL)	32 µM (≈ 17.7 µg/mL)	32 µM (≈ 17.7 µg/mL)
CCC(NC(=O)C[C@@H](C)[C@H]1CC[C@H]2[C@@H]3[C@H](O)[C@H](O)[C@@H]4C[C@H](O)CC[C@]4(C)[C@H]3CC[C@]12C)c1cccs1 (stereo partly drawn) [Compound I-116]				16 µM (≈ 8.28 µg/mL)	16 µM (≈ 8.28 µg/mL)	16 µM (≈ 8.28 µg/mL)
CC[C@@H](NC(=O)C[C@@H](C)[C@H]1CC[C@H]2[C@@H]3[C@H](N)C[C@@H]4C[C@H](O)CC[C@]4(C)[C@H]3CC[C@]12C)c1ccc(Cl)s1 [Compound I-171]				32 µM (≈ 17.1 µg/mL)	32 µM (≈ 17.1 µg/mL)	32 µM (≈ 17.1 µg/mL)
CC(C)[C@@H](NC(=O)C[C@@H](C)[C@H]1CC[C@H]2[C@@H]3[C@H](O)CC4=CC(=O)CC[C@]4(C)[C@H]3CC[C@]12C)c1ccc(Cl)s1 [Compound I-158-2]				0.5 µM (≈ 0.273 µg/mL)	0.5 µM (≈ 0.273 µg/mL)	0.5 µM (≈ 0.273 µg/mL)
CC(C)[C@@H](NC(=O)C[C@@H](C)[C@H]1CC[C@H]2[C@@H]3[C@H](OP(=O)(O)O)C[C@@H]4CC(=O)CC[C@]4(C)[C@H]3CC[C@]12C)c1ccc(Cl)s1 [Compound I-193]				64 µM (≈ 40.2 µg/mL)	64 µM (≈ 40.2 µg/mL)	64 µM (≈ 40.2 µg/mL)
CC[C@@H](NC(=O)C[C@@H](C)[C@H]1CC[C@H]2[C@@H]3[C@H](O)C[C@@H]4C[C@H](O)CC[C@]4(C)[C@H]3CC[C@]12C)c1ccc(Br)s1 [Compound I-138]				1 µM (≈ 0.581 µg/mL)	1 µM (≈ 0.581 µg/mL)	1 µM (≈ 0.581 µg/mL)
CC(C)C(NC(=O)C[C@@H](C)[C@H]1CC[C@H]2[C@@H]3[C@H](O)C[C@@H]4CC(=O)CC[C@]4(C)[C@H]3CC[C@]12C)c1ccc(S(=O)(=O)O)s1 (stereo partly drawn) [Compound I-101]				32 µM (≈ 19 µg/mL)	32 µM (≈ 19 µg/mL)	32 µM (≈ 19 µg/mL)
CC[C@@H](NC(=O)C[C@@H](C)[C@H]1CC[C@H]2[C@@H]3[C@H](O)[C@H](O)[C@@H]4CC(=O)CC[C@]4(C)[C@H]3CC[C@]12C)c1ccc(Br)s1 [Compound I-124]				64 µM (≈ 38.1 µg/mL)	64 µM (≈ 38.1 µg/mL)	64 µM (≈ 38.1 µg/mL)
CC(C)[C@@H](NC(=O)C[C@@H](C)[C@H]1CC[C@H]2[C@@H]3CC(=O)[C@@H]4CC(=O)CC[C@]4(C)[C@H]3CC[C@]12C)c1ccc(Cl)s1 [Compound I-131]				2 µM (≈ 1.09 µg/mL)	2 µM (≈ 1.09 µg/mL)	2 µM (≈ 1.09 µg/mL)
CC[C@@H](NC(=O)C[C@@H](C)[C@H]1CC[C@H]2[C@@H]3[C@H](OC(C)=O)CC4=CC(=O)C=C[C@]4(C)[C@H]3CC[C@]12C)c1ccc(Br)s1 [I-159 -1]				0.5 µM (≈ 0.308 µg/mL)	0.5 µM (≈ 0.308 µg/mL)	0.5 µM (≈ 0.308 µg/mL)
CC(C)C(NC(=O)C[C@@H](C)[C@H]1CC[C@H]2[C@@H]3[C@H](OS(=O)(=O)O)C[C@@H]4CC(=O)CC[C@]4(C)[C@H]3CC[C@]12C)c1ccc(Cl)s1 (stereo partly drawn) [Compound I-110]				0.5 µM (≈ 0.314 µg/mL)	1 µM (≈ 0.628 µg/mL)	1 µM (≈ 0.628 µg/mL)
CC[C@@H](NC(=O)C[C@@H](C)[C@H]1CC[C@H]2[C@@H]3[C@H](O)C[C@@H]4C[C@H](O)CC[C@]4(C)[C@H]3C[C@H](O)[C@]12C)c1ccc(Cl)s1 [Compound I-145]				32 µM (≈ 17.7 µg/mL)	16 µM (≈ 8.84 µg/mL)	32 µM (≈ 17.7 µg/mL)
CC(NC(=O)C[C@@H](C)[C@H]1CC[C@H]2[C@@H]3C(=O)C[C@@H]4CC(=O)CC[C@]4(C)[C@H]3CC[C@]12C)c1ccc(S(=O)(=O)O)s1 (stereo partly drawn) [Compound I-34]				64 µM (≈ 36.1 µg/mL)	64 µM (≈ 36.1 µg/mL)	64 µM (≈ 36.1 µg/mL)
CCC(NC(=O)C[C@@H](C)[C@H]1CC[C@H]2[C@@H]3[C@H](OS(=O)(=O)O)C[C@@H]4CC(=O)CC[C@]4(C)[C@H]3CC[C@]12C)c1ccc(Cl)s1 (stereo partly drawn) [Compound I-104]				1 µM (≈ 0.614 µg/mL)	1 µM (≈ 0.614 µg/mL)	1 µM (≈ 0.614 µg/mL)
CC[C@@H](NC(=O)C[C@@H](C)[C@H]1CC[C@H]2[C@@H]3C(=O)C[C@@H]4CC(=O)CC[C@]4(C)[C@H]3CC[C@]12C)c1ccc(Cl)s1 [Compound I-70]				0.5 µM (≈ 0.266 µg/mL)	0.25 µM (≈ 0.133 µg/mL)	0.25 µM (≈ 0.133 µg/mL)
CCCCCCCC(=O)O[C@@H]1C[C@@H]2CC(=O)CC[C@]2(C)[C@H]2CC[C@]3(C)[C@@H]([C@H](C)CC(=O)N[C@@H](c4ccc(Cl)s4)C(C)C)CC[C@H]3[C@H]12 [Compound I-185]				128 µM (≈ 86.3 µg/mL)	128 µM (≈ 86.3 µg/mL)	128 µM (≈ 86.3 µg/mL)
CC[C@@H](NC(=O)C[C@@H](C)[C@H]1CC[C@H]2[C@@H]3[C@@H](O)C[C@@H]4C[C@H](O)CC[C@]4(C)[C@H]3CC[C@]12C)c1ccc(Cl)s1 [Compound I-141]				32 µM (≈ 17.2 µg/mL)	32 µM (≈ 17.2 µg/mL)	32 µM (≈ 17.2 µg/mL)
